Reference: patent publication US20230124862A1, “BISMUTH THIOL COMPOUNDS AND COMPOSITIONS AND METHODS OF TREATING MICROBIAL CO-INFECTIONS” (Microbion Corporation, priority 2020, published 2023)

What was measured:
Assay in all cases: Antifungal broth microdilution (Example 13)
[1] = system: Aspergillus spp.; assay type: cell-based, A. niger, A. terreus, A. fumigatus, A. flavus; conditions: complete inhibition, comparator, time not stated
[2] = system: Candida glabrata; assay type: cell-based; conditions: for MIC0: complete inhibition; for MIC2: 50% inhibition
[3] = system: Candida albicans; assay type: cell-based; conditions: 24 hr; for MIC0: complete inhibition; for MIC2: 50% inhibition
[4] = system: Candida auris; assay type: cell-based; conditions: for MIC0: complete inhibition; for MIC2: 50% inhibition
[5] = system: Candida krusei; assay type: cell-based; conditions: for MIC0: complete inhibition; for MIC2: 50% inhibition
[6] = C. glabrata ATCC 90030, Susceptible
[7] = C. glabrata ATCC MYA-2950, Susceptible
[8] = C. glabrata MMX 7087, Susceptible
[9] = C. glabrata MMX 7103, CASP-R, MICA-R
[10] = C. glabrata MMX 7111, Susceptible
[11] = C. glabrata MMX 7285, CASP-R, MICA-R
[12] = C. glabrata MMX 7307, CASP-R, MICA-R, FLU-R
[13] = C. glabrata MMX 7549, Susceptible
[14] = C. albicans ATCC 90028, Susceptible
[15] = C. albicans ATCC 204276, MICA-R
[16] = C. albicans ATCC MYA-2732, FLU-R, VORI-I
[17] = C. albicans MMX 7053, Susceptible
[18] = C. albicans MMX 7067, FLU-R, VORI-R
[19] = C. albicans MMX 7403, Susceptible
[20] = C. albicans MMX 7424, CASP-R, MICA-R
[21] = C. albicans MMX 7430, Susceptible
[22] = C. albicans MMX 7445, FLU-R, VORI-R
[23] = C. auris MMX 9863, FLU-R, VORI-R
[24] = C. auris MMX 9864, FLU-R, VORI-R
[25] = C. auris MMX 9865, FLU-R, VORI-R
[26] = C. auris MMX 9866, FLU-R, VORI-R
[27] = C. auris MMX 9867, FLU-R, VORI-R
[28] = C. auris MMX 9868, FLU-R, VORI-R
[29] = C. auris MMX 9869, FLU-R, VORI-R
[30] = C. auris MMX 9870, FLU-R, VORI-R
[31] = C. krusei ATCC 14243, Susceptible
[32] = C. krusei ATCC 96685, Susceptible
[33] = C. krusei MMX 7125, Susceptible
[34] = C. krusei MMX 7128, Susceptible
[35] = C. krusei MMX 7141, Susceptible
[36] = C. krusei MMX 7155, Susceptible
[37] = C. krusei MMX 7563, Susceptible
[38] = C. krusei MMX 9878, MICA-I, VORI-I

C[C@@H]1[C@H](O)[C@@H](C)/C=C/C=C/C=C/C=C/C=C/C=C/C=C/[C@H](O[C@@H]2O[C@H](C)[C@@H](O)[C@H](N)[C@@H]2O)C[C@@H]2O[C@](O)(C[C@@H](O)C[C@@H](O)[C@H](O)CC[C@@H](O)C[C@@H](O)CC(=O)O[C@H]1C)C[C@H](O)[C@H]2C(=O)O [AMP B]
0.12 µg/mL: MIC0 [2, 7] | MIC0 [2, 8] | MIC0 [3, 17] | MIC0 [3, 22] | MIC0 [4, 23]
0.5 µg/mL: MIC0 [4, 26] | MIC0 [4, 27] | MIC0 ([5]; C. krusei ATCC 6258, MICA-I) | MIC0 [5, 32] | MIC0 [5, 33] | MIC0 [5, 34] | MIC0 ([5]; C. krusei MMX 7153, MICA-R) | MIC0 [5, 37] | MIC0 [5, 38]
0.25 µg/mL: MIC0 ([1]; A. niger ATCC 29508) | MIC0 ([1]; A. terreus MMX 8229) | MIC0 [2, 6] | MIC0 ([2]; C. glabrata MMX 7093, FLU-R) | MIC0 ([2]; C. glabrata MMX 7101, FLU-R) | MIC0 [2, 9] | MIC0 [2, 10] | MIC0 [2, 11] | MIC0 [2, 12] | MIC0 [2, 13] | MIC0 [3, 14] | MIC0 [3, 15] | MIC0 [3, 16] | MIC0 [3, 18] | MIC0 [3, 19] | MIC0 [3, 20] | MIC0 [3, 21] | MIC0 ([3]; C. albicans MMX 7437, FLU-I) | MIC0 ([4]; C. auris MMX 9862, Susceptible) | MIC0 [4, 24] | MIC0 [4, 25] | MIC0 [4, 28] | MIC0 [5, 31] | MIC0 [5, 35] | MIC0 [5, 36]
1 µg/mL: MIC0 ([1]; A. flavus ATCC 22546) | MIC0 ([1]; A. flavus ATCC 204304) | MIC0 ([1]; A. flavus MMX 7935) | MIC0 ([1]; A. fumigatus ATCC 204305) | MIC0 ([1]; A. fumigatus ATCC MYA-3626) | MIC0 ([1]; A. fumigatus MMX 5934) | MIC0 ([1]; A. fumigatus MMX 5938) | MIC0 ([1]; A. fumigatus MMX 5939) | MIC0 [4, 29] | MIC0 [4, 30] | MIC0 ([4]; C. auris MMX 9871, Susceptible)

C[C@@H](c1ncncc1F)[C@](O)(Cn1cncn1)c1ccc(F)cc1F [VORI]
1 µg/mL: MIC0 ([1]; A. flavus ATCC 22546) | MIC2 [2, 11] | MIC2 ([4]; C. auris MMX 9871, Susceptible) | MIC2 [5, 38]
2 µg/mL: MIC0 ([1]; A. flavus ATCC 204304) | MIC2 ([2]; C. glabrata MMX 7093, FLU-R) | MIC2 ([2]; C. glabrata MMX 7101, FLU-R) | MIC2 [4, 29]
0.5 µg/mL: MIC0 ([1]; A. flavus MMX 7935) | MIC0 ([1]; A. fumigatus ATCC 204305) | MIC0 ([1]; A. fumigatus ATCC MYA-3626) | MIC0 ([1]; A. niger ATCC 29508) | MIC2 [3, 16] | MIC2 [5, 32]
7 µg/mL: MIC0 ([1]; A. fumigatus MMX 5939) | MIC2 [4, 24]
0.03 µg/mL: MIC2 [2, 8] | MIC2 ([4]; C. auris MMX 9862, Susceptible)
8 µg/mL: MIC2 [4, 25] | MIC2 [4, 26] | MIC2 [4, 27]
4 µg/mL: MIC2 [2, 12] | MIC2 [4, 30]
0.06 µg/mL: MIC2 [2, 10] | MIC2 [2, 13] | MIC2 [5, 31]
0.25 µg/mL: MIC0 ([1]; A. fumigatus MMX 5934) | MIC0 ([1]; A. fumigatus MMX 5938) | MIC0 ([1]; A. terreus MMX 8229) | MIC2 [5, 33] | MIC2 ([5]; C. krusei MMX 7153, MICA-R) | MIC2 [5, 36] | MIC2 [5, 37]
0.12 µg/mL: MIC2 [2, 6] | MIC2 [2, 7] | MIC2 [2, 9] | MIC2 ([3]; C. albicans MMX 7437, FLU-I) | MIC2 ([5]; C. krusei ATCC 6258, MICA-I) | MIC2 [5, 34] | MIC2 [5, 35]
≤0.008 µg/mL: MIC2 [3, 14] | MIC2 [3, 15] | MIC2 [3, 17] | MIC2 [3, 19] | MIC2 [3, 20] | MIC2 [3, 21]
>8 µg/mL: MIC2 [3, 18] | MIC2 [3, 22] | MIC2 [4, 23] | MIC2 [4, 28]
